{
  "source": "patent US9901584B2",
  "about": "“Methods of cosmetically treating skin conditions with a cosmetic personal cleansing composition” (The Procter & Gamble Company, priority 2015, dated 2018)",
  "test_system": "Unhealthy Skin Signature",
  "conditions": "normal human keratinocytes, various doses of zinc pyrithione, 6-24 hours",
  "data": [
    {"substance": "zinc pyrithione", "values": [
      {"measurement": "Linkage to Unhealthy Skin Signature gene expression pattern", "value": "negative linkage"}
    ]}
  ]
}
